# Assay results taken from patent US9169315B2, “Heparin cofactor II fragments with anti-inflammatory and anti-coagulant activity” (XIMMUNE AB, priority 2009, dated 2015).
# Entries after “also recorded” stand apart in the source; their conditions may differ. No end group written: not given here.
# Key:
# P. aeruginosa 15159 = test: P. aeruginosa infection model (sepsis); assay type: in vivo, mice
# Procedure: Mice were inoculated with P. aeruginosa and KYE28 (0.5 mg) was administrated sc 1 h after infection. (A) Bacterial counts in the indicated organs were analyzed after a time period of 4, 8, and 12 h. (B) In parallel, the indicated cytokines were analyzed in blood.
# (A) Bacterial counts in the indicated organs were analyzed after a time period of 12 h. (B) Effects on platelets, lymphocytes, monocytes and neutrohils are shown. (C) In parallel, the indicated cytokines were analyzed in blood. […]
# (A) P. aeruginosa 15159 bacteria (in PBS, ˜2×10^4 or 2×10^8 cfu/ml) were kept on ice until injection. Hundred microliter of the bacterial suspension were injected intraperitoneally (ip) into C57/Bl6 mice. At ˜10 min after the bacterial injection, 0.5 mg of NLF20 or PBS alone was injected ip into the mice. Liver, spleen and kidney were harvested, placed on ice, homogenized, and colony-forming units (cfu) determined 12 h after infection. (B) In a similar infection model (2×10^8 cfu/ml of P. aeruginosa) intraperitoneal (ip) administration after 30 min was compared with subcutaneous injection (sc) after 1 h. 0.5 mg of NLF20 was used. […] Mice were injected intraperitoneally with P. aeruginosa as above followed by ip or sc administration of NLF20 (500 μg). Survival was followed for 7 days. […] (D) NLF20 effects on TNF-α and IL-10 were analyzed in blood. (E) Thrombocytes were analyzed in blood. Treatment with NLF20 (ip and sc) increased thrombocyte levels.
# Animals were Housed Under Standard Conditions of Light and Temperature and Had free access to standard laboratory chow and water. P. aeruginosa 15159 bacteria were grown to logarithmic phase (OD620˜0.5), harvested, washed in PBS, diluted in the same buffer to 2×10^8 cfu/ml, and kept on ice until injection. Hundred microliter of the bacterial suspension was injected intraperitoneally (i.p.) into female bI6 mice. […] In order to study bacterial dissemination to target organs spleen, liver and kidney were harvested, placed on ice, homogenized, and colony-forming units determined. The P-value was determined using the Mann-Whitney U-test. Data from three independent experiments were pooled.
# Animals were housed under standard conditions of light and temperature AND had free access to standard laboratory chow and water. P. aeruginosa 15159 bacteria were grown to logarithmic phase (OD620˜0.5), harvested, washed in PBS, diluted in the same buffer to 2×10^8 cfu/ml, and kept on ice until injection. Hundred microliter of the bacterial suspension was injected intraperitoneally (i.p.) into female bI6 mice. Immediately subsequent the bacterial injection, 0.5 mg NLF20 (in 10 mM Tris, pH 7.4) or buffer alone was injected i.p. into the mice. In order to study bacterial dissemination to target organs spleen, liver and kidney were harvested, placed on ice, homogenized, and colony-forming units determined. The P-value was determined using the Mann-Whitney U-test. Data from three independent experiments were pooled.
# erythrocytes = assay type: cell-based, human
# S. pyogenes = assay type: cell-based
# Procedure: MIC assay was carried out by a microtiter broth dilution method as previously described in the NCSLA guidelines (Wiegand, I., Hilpert, K. & Hancock, R. E. Agar and broth dilution methods to determine the minimal inhibitory concentration (MIC) of antimicrobial substances. Nat Protoc 3, 163-175 (2008)). In brief, fresh overnight colonies were suspended to a turbidity of 0.5 units and further diluted in Mueller-Hinton broth (Becton Dickinson). For determination of MIC, peptides were dissolved in water at concentration 10 times higher than the required range by serial dilutions from a stock solution. Ten μl of each concentration was added to each corresponding well of a 96-well microtiter plate (polypropylene, Costar Corp.) and 90 μl of bacteria (1×10^5) in MH medium added. The plate was incubated at 37° C. for 16-18 h. MIC was taken as the lowest concentration where no visual growth of bacteria was detected.
# [1] = test system: P. aeruginosa, E. coli, S. pyogenes, S. aureus, C. albicans; test: Antibacterial effects in human blood infected by bacteria; assay type: cell-based; conditions: 50% citrate blood
# Procedure: (§1) (A) Antibacterial effects of NLF20 in presence of the indicated bacteria in human blood (made 50% in PBS) are presented. The indicated microbes (2×10^8 cfu/ml) were added to 50% citrate blood, followed by addition of peptide at 30, 60 or 120 μM. The number of cfu was determined after an incubation period of 1 h. (B) In an identical setup, hemolysis effects were studied. The bacteria were added to 50% citrate blood, followed by addition of peptide. Hemolysis was assessed after 1 hour.
# E. coli ATCC 25922, P. aeruginosa 15159, or S. aureus ATCC 29213 bacteria were grown to mid-logarithmic phase in Todd-Hewitt (TH) medium (Becton and Dickinson, Maryland, USA). The microorganisms were then washed and diluted in 10 mM Tris, pH 7.4 containing 5 mM glucose. Following this, bacteria (50 μl; 2×10^6 cfu/ml) were incubated, at 37° C. for 2 hours, with NLF20 or LL-37 (at 0.03, 0.06, 0.3, 0.6, 3, 6, 30, 60 μM) in 10 mM Tris, 0.15 M NaCl, with or without 20% human citrate-plasma. […] To quantify the bactericidal activity, serial dilutions of the incubation mixtures were plated on TH agar, followed by incubation at 37° C. overnight and the number of colony-forming units was determined. […] Significance was determined using the statistical software SigmaStat (SPSS Inc., Chicago, Ill., USA).
# P. aeruginosa = test: Electron microscopy of peptide-treated bacteria; assay type: cell-based; conditions: 30 μM, 2 h, 37° C.
# Procedure: (A) Permeabilizing effects of peptides on E. coli. Bacteria were incubated with the NLF20 and permeabilization was assessed using the impermeant probe FITC. (B) Electron microscopy analysis. P. aeruginosa and S. aureus bacteria were incubated for 2 h at 37° C. with 30 μM of NLF20 and visualized by negative staining. LL-37 is shown for comparison. Scale bar represents 1 μm. Control; Buffer control.
# human blood = test: Hemolysis in human blood infected by bacteria; assay type: cell-based; conditions: peptide dose of 120 μM
# Procedure: as §1
# In the experiments with blood infected by bacteria, citrate-blood was diluted (1:1) with PBS.
# [2] = 0.5 mg sc 1 h after infection, particularly after 12 h
# [3] = sc 1 h, or 1 and 7 h after inoculation
sequence,measurement,setting,value
KYEITTIHNLFRKLTHRLFRRNFGYTLR [KYE28],"Bacterial levels in spleen, kidney and liver","P. aeruginosa 15159; 0.5 mg sc 1 h after infection, 4, 8 and 12 h",did not significantly reduce bacterial levels
same,IL-10 in blood,"P. aeruginosa 15159; 0.5 mg sc 1 h after infection, after 12 h",not significantly modulated
same,IFN-γ in blood,P. aeruginosa 15159; [2],concomitant reduction of cytokine levels
same,IL-6 in blood,P. aeruginosa 15159; [2],concomitant reduction of cytokine levels
same,MCP-1 in blood,P. aeruginosa 15159; [2],concomitant reduction of cytokine levels
same,TNF-α in blood,P. aeruginosa 15159; [2],concomitant reduction of cytokine levels
same,Survival,"P. aeruginosa 15159; one dose, sc 1 h after inoculation",did not increase survival
same,Bacterial cfu in organs,"P. aeruginosa 15159; one dose, sc 1 h after inoculation, 12 h",did not significantly reduce bacterial cfu
same,Bacterial cfu in organs,"P. aeruginosa 15159; repeated treatment, sc 1 and 7 h after inoculation, 12 h",moderate reduction of cfu numbers
same,Cytokines in blood,P. aeruginosa 15159; [3],dramatic and highly significant reduction of cytokines in blood
same,Platelets,P. aeruginosa 15159; [3],"slight, but significant increase in platelets"
same,Survival / mortality,"P. aeruginosa 15159; two-dose regime, sc 1 and 7 h after infection","significantly reduced mortality; also recorded: significant delay of septic symptoms as well as delayed mortality, and eventually also increase in survival"
same,Hemolytic activity,erythrocytes,significant hemolytic activities at higher doses (30-60 μM)
same,MIC,S. pyogenes,10 µM
NLFRKLTHRLFRRNFGYTLR [NLF20],Antibacterial effect in infected human blood,"[1]; P. aeruginosa, E. coli, S. pyogenes, peptide dose 120 μM, 1 h","almost complete eradication of P. aeruginosa, E. coli, as well as S. pyogenes"
same,Antibacterial/antifungal effect in infected human blood,[1]; S. aureus and C. albicans,not active
same,Bacterial cfu in organs,P. aeruginosa 15159; 0.5 mg given subcutaneously 1 h after infection,reductions in cfu
same,"Bacterial numbers in spleen, liver and kidney","P. aeruginosa 15159; 0.5 mg ip shortly after bacterial injection, 12 h","significantly lower bacterial numbers in the spleen, liver, and kidney"
same,Thrombocytes in blood,P. aeruginosa 15159; ip and sc,thrombocytes were increased
same,IL-10 in blood,P. aeruginosa 15159; ip and sc administration,showing an increase (both administrations)
same,TNF-α in blood,P. aeruginosa 15159; ip treatment,a reduction was noted after ip treatment
same,Mortality,"P. aeruginosa 15159; one dose (500 μg) ip, followed 7 days",significantly reduce mortality
same,Survival,"P. aeruginosa 15159; one dose (500 μg) sc, followed 7 days",prolong survival
same,Survival,P. aeruginosa 15159; subcutaneous injection after 1 h and then every 24 h for the three following days (FIG. 21),significantly increases survival
same,Hemolytic activity,erythrocytes,hemolytic activities at higher doses (30-60 μM)
same,Membrane damage by electron microscopy,P. aeruginosa,extensive membrane damage
same,MIC,S. pyogenes,2.5 µM
same,Accompanying hemolysis in infected human blood,human blood,≤ 2%
